Source: PMC9374377, “Noninvasive interrogation of CD8^+ T cell effector function for monitoring early tumor responses to immunotherapy” (The Journal of Clinical Investigation, 2022)
One block for each compound: values may come before it. Where a SMILES comes first, the peptide text is derived from it. The star is where a group is joined. X1 = O=C(O)CN1CCN(CC(=O)O)CC(Cc2ccc(NC(=S)*)cc2)N(CC(=O)O)CC1

Legend:
MC38 tumor–bearing mice [1] = assay: FTY720 treatment of MC38 tumor–bearing mice under anti–PD-1 plus anti–CTLA-4; format: in vivo, mouse
Source text: MC38 or B16-OVA tumor–bearing C57BL/6 mice were euthanized, and tumor tissues were harvested and digested with 10 U/mL collagenase I, 400 U/mL collagenase IV, and 30 U/mL DNase (Yuanye Bio-Technology) to generate single-cell suspensions. The following fluorescently labeled antibodies were then used for staining of different markers: anti-CD45 (clone 30-F11, BioLegend), anti-CD4 (clone RM4-5, eBioscience), anti-CD8 (clone 53-6.7, BioLegend), anti-NK1.1 (clone PK136, BioLegend), anti–granzyme B (clone QA16A02, BioLegend), and anti–IFN-γ (clone XMG1.2, BioLegend). For granzyme B and IFN-γ staining, cells were incubated in culture medium containing a cell activation cocktail (catalog 423303, BioLegend) at 37°C for 5 hours and then washed with permeabilization wash buffer (catalog 421002, BioLegend) before being stained with fluorescently labeled antibodies. Data collection and analysis were performed on a flow cytometer (Becton Dickinson).
The tumor sections were fixed with ice-cold acetone for 10 minutes and washed with PBS. Next, the slices were blocked with 1% BSA for 1 hour and incubated with rabbit anti–mouse granzyme B antibody (catalog 17215S, Cell Signaling Technology) or rabbit anti–mouse NK1.1 antibody (clone EPR22990-31, Abcam) overnight at 4°C. The slices were then visualized by incubation with FITC-conjugated secondary antibody (catalog E031220-01, Earthox) and DAPI (Biotium) under a confocal microscope (Leica).

MC38 tumor–bearing mice [2] = conditions: mouse, in vivo
Experimental: (§1) Small-animal PET scanning and image analysis were performed using a Super Nova PET/CT scanner ([sequence]). […] At the indicated times (0.5, 1, and 2 hours) after injection, 10-minute static PET scans were acquired. PET images were analyzed, and the region of interest–derived (ROI-derived) %ID/g values were calculated as described previously ([52]).
MC38 tumor-bearing C57BL/6 mice were pretreated with anti-PD-1 antibody
For the small-animal PET imaging studies, ten MC38 tumor-bearing C57BL/6 mice
CTLA-4 (clone 9D9; BioXcell) antibodies on days 0, 3, and 6 after the tumor size
grazytracer. Mice were anesthetized with 2% inhaled isoflurane, and 10-min static PET
scans were acquired at 0.5, 1, and 2 h postinjection using a small-animal Super Nova
PET/CT scanner ([sequence], Shanghai, China). The tumor %ID/g values and tumor-
to-muscle ratios of 68Ga-NOTA-GZP and 68Ga-grazytracer were calculated for

4T1 tumor–bearing mice = conditions: mouse, in vivo
Experimental: as §1

[3] = In vivo metabolic stability (serum and urine, radio-HPLC); design: species or system mouse; conditions: female C57BL/6 normal mice, 5.55 MBq i.v.
Source text: μg/day on days 0, 3, and 6).
distribution of the radiotracer in the main organs. Mice were euthanized at 0.5, 1, and
and measured using a γ counter (Packard, Meriden, CT). The results are presented as
In vivo metabolic stability studies
grazytracer or 68Ga-NOTA-GZP.
and analyzed using radio-HPLC.

SMILES: CCCCCCCCc1ccc(CCC(N)(CO)CO)cc1 [FTY720]
effect on the antitumor effect of anti–PD-1 plus anti–CTLA-4 (MC38 tumor–bearing mice [1]; 25 μg i.p. on day –1, 10 μg daily day 0 to 12, n = 6–9): partially reversed the antitumor effect
body weight (MC38 tumor–bearing mice [1]; MC38 mice, n = 6–9): without influencing body weight
granzyme B secretion in tumors (immunofluorescence) (MC38 tumor–bearing mice [1]; MC38 tumors on day 6): reduced granzyme B secretion in tumors
levels of NK, CD4+ T and CD8+ T cells in tumor versus group without FTY720 (MC38 tumor–bearing mice [1]; flow cytometry, day 6, n = 5/group): significantly lower

change of tumor uptake from days 0 to 6, pseudoprogression MC38 model (MC38 tumor–bearing mice [2]): significantly increased
change of tumor uptake from days 0 to 6, true-progression 4T1 model (4T1 tumor–bearing mice): significantly increased
SMILES: OC[C@H]1OC(O)[C@H](F)[C@@H](O)[C@@H]1O (some centres unmarked) [^18F-FDG, ^18F-fluorodeoxyglucose]

in vivo metabolic stability in blood ([3]; serum at 0.5 hours after injection): favorable stability in the blood
in vivo metabolic stability in urine ([3]; urine at 0.5 hours after injection): some decomposition in urine
SMILES: CC[C@H](C)[C@H](NC(=O)CNC(=O)CNC(=O)CNC(=S)Nc1ccc(CC2CN(CC(=O)O)CCN(CC(=O)O)CCN2CC(=O)O)cc1)C(=O)N[C@@H](CCC(=O)O)C(=O)N[C@@H](Cc1ccccc1)C(=O)N[C@H](C=O)CC(=O)O (some centres unmarked) [^68Ga-NOTA-GZP, ^68Ga-1,4,7–triazacyclononane-1,4,7-triacetic acid–GZP, metal not drawn] (X1-GGGIEFD-aldehyde)
